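Five concentrations, 48 hours, 96-well plates. GI50 marks 50% less growth. At the TGI there is no net growth.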
How the values were obtained:
Test in all cases: growth of human tumour cells (NCI), 48 h
[1] = test system: COLO 205 colon
[2] = test system: OVCAR-8 ovarian
[3] = test system: SK-MEL-5 melanoma
[4] = test system: SF-539 CNS
[5] = test system: A498 renal
[6] = test system: HCT-15 colon
[7] = test system: MOLT-4 leukemia
[8] = test system: NCI-H226 lung
[9] = test system: OVCAR-4 ovarian
[10] = test system: NCI/ADR-RES ovarian
[11] = test system: RPMI-8226 leukemia
[12] = test system: SK-MEL-28 melanoma
[13] = test system: UACC-62 melanoma
[14] = test system: U251 CNS
[15] = test system: T-47D breast
[16] = test system: A549 NSCLC
[17] = test system: KM12 colon
[18] = test system: OVCAR-5 ovarian
[19] = test system: HS 578T breast
[20] = test system: SF-268 CNS
[21] = test system: MCF7 breast
[22] = test system: MDA-MB-435
[23] = test system: EKVX NSCLC
[24] = test system: K-562 leukemia
[25] = test system: DU-145 prostate
[26] = test system: HCT-116 colon
[27] = test system: HOP-62 NSCLC
[28] = test system: NCI-H460 lung
[29] = test system: HL-60(TB) leukemia
[30] = test system: SN12C renal
[31] = test system: CCRF-CEM leukemia
[32] = test system: 786-0 renal
[33] = test system: ACHN renal
[34] = test system: SW-620 colon
[35] = test system: M14 melanoma
[36] = test system: SNB-19 CNS
[37] = test system: NCI-H23 lung
[38] = test system: TK-10 renal
[39] = test system: HT29 colon
[40] = test system: SR leukemia
[41] = test system: MALME-3M melanoma
[42] = test system: CAKI-1 renal
[43] = test system: SK-OV-3 ovarian
[44] = test system: UO-31 renal
[45] = test system: MDA-MB-231 breast
[46] = test system: HOP-92 NSCLC
[47] = test system: LOX IMVI melanoma
[48] = test system: OVCAR-3 ovarian
[49] = test system: NCI-H522 lung
[50] = test system: IGROV1 ovarian
[51] = test system: BT-549 breast
[52] = test system: SF-295 CNS
[53] = test system: UACC-257 melanoma
[54] = test system: HCC-2998 colon
[55] = test system: PC-3 prostate
[56] = test system: SNB-75 CNS
[57] = test system: SK-MEL-2 melanoma
[58] = test system: RXF 393 renal

In the case of `CC12CC[C@@H]3c4cc5c(cc4CC[C@H]3[C@@H]1CCC2O)oc1cc(F)ccc15` (stereo not given in full), the GI50 [1] is reported as 17.1 µM, the TGI [1] is reported as 36.2 µM and the GI50 [2] is reported as 20 µM. The TGI [2] was 62.6 µM, the GI50 [3] was 18.8 µM and the TGI [3] was 36 µM. It also gave a GI50 [4] of 22.7 µM, a TGI [4] of 54.7 µM and a TGI [5] of 23.6 µM. It also gave a GI50 [6] of 10.8 µM, a TGI [6] of 31.8 µM and a GI50 [7] of 16.2 µM. It also gave a TGI [7] of 40.6 µM, a GI50 [8] of 14.9 µM and a TGI [8] of 53 µM. The GI50 [9] was 17 µM, the TGI [9] was 55.6 µM and the GI50 [10] was 18.6 µM. For the same compound, the TGI [10] was 55.5 µM, the GI50 [11] was 14.6 µM and the TGI [11] was > 100 µM. For the same compound, the GI50 [12] was 20.2 µM, the TGI [12] was 58.8 µM and the GI50 [13] was 24.4 µM. The TGI [13] was > 100000 nM, the GI50 [14] was 14.1 µM and the TGI [14] was 28.6 µM. For the same compound, the GI50 [15] was 12.3 µM, the TGI [15] was 52.6 µM and the GI50 [16] was 33.1 µM. For the same compound, the TGI [16] was > 100 µM, the GI50 [17] was 17.8 µM and the TGI [17] was 45.5 µM. The GI50 [18] was 24.8 µM, the TGI [18] was > 100 µM and the GI50 [19] was 26.3 µM. For the same compound, the TGI [19] was 49.6 µM, the GI50 [20] was 18.8 µM and the TGI [20] was 62.8 µM. The GI50 [21] was 31.7 µM, the TGI [21] was 82.7 µM and the GI50 [22] was 39.5 µM. The TGI [22] was > 100 µM, the GI50 [23] was 15.5 µM and the TGI [23] was 49 µM. For the same compound, the GI50 [24] was 8.68 µM, the TGI [24] was 47.7 µM and the GI50 [25] was 17.8 µM. It also gave a TGI [25] of 31.6 µM, a GI50 [26] of 13.9 µM and a TGI [26] of 30.6 µM. For the same compound, the GI50 [27] was 18.7 µM, the TGI [27] was 45.4 µM and the GI50 [28] was 15.2 µM. The TGI [28] was 36.3 µM, the GI50 [29] was 7.74 µM and the TGI [29] was 39.2 µM. For the same compound, the GI50 [30] was 19 µM, the TGI [30] was 42.5 µM and the GI50 [31] was 27.9 µM. The TGI [31] was > 100 µM, the GI50 [32] was 16.1 µM and the TGI [32] was 37.4 µM. The GI50 [33] was 15.8 µM, the TGI [33] was 35.4 µM and the GI50 [34] was 25.6 µM. It also gave a TGI [34] of 78.9 µM, a GI50 [35] of 20.8 µM and a TGI [35] of 74.1 µM. For the same compound, the GI50 [36] was 19 µM, the TGI [36] was 40.9 µM and the GI50 [37] was 26.1 µM. For the same compound, the TGI [37] was 99.5 µM, the GI50 [38] was 15.6 µM and the TGI [38] was 33.9 µM. For the same compound, the GI50 [39] was 12.5 µM, the TGI [39] was 25 µM and the GI50 [40] was 15.9 µM. For the same compound, the TGI [40] was 31 µM, the GI50 [41] was 20.3 µM and the TGI [41] was 49.8 µM. The GI50 [42] was 16.1 µM, the TGI [42] was 37.4 µM and the GI50 [43] was 21.5 µM. The TGI [43] was 52.1 µM, the GI50 [44] was 24.3 µM and the TGI [44] was 68 µM. For the same compound, the GI50 [45] was 14.1 µM, the TGI [45] was 34 µM and the GI50 [46] was 21.1 µM. It also gave a TGI [46] of 63 µM, a GI50 [47] of 12.1 µM and a TGI [47] of 24.5 µM. It also gave a GI50 [48] of 19.1 µM, a TGI [48] of 43.3 µM and a GI50 [49] of 23.2 µM. The TGI [49] was > 100 µM, the GI50 [50] was 16.7 µM and the TGI [50] was 36.9 µM. It also gave a GI50 [51] of 17.7 µM, a TGI [51] of 39.1 µM and a GI50 [52] of 18.3 µM. It also gave a TGI [52] of 40.2 µM, a GI50 [53] of 21.6 µM and a TGI [53] of 74.8 µM. The GI50 [54] was 23.2 µM, the TGI [54] was > 100 µM and the GI50 [55] was 17.3 µM. The TGI [55] was 43.2 µM, the GI50 [56] was 15.5 µM and the TGI [56] was 35.5 µM.
In the case of `O=c1cc(N2CCOCC2)oc2c(-c3ccc4c(c3)OCCO4)csc12`, the GI50 [1] is reported as 0.417 µM, the TGI [1] is reported as 2.74 µM and the GI50 [2] is reported as 0.498 µM. The TGI [2] was 12 µM, the GI50 [3] was 0.59 µM and the TGI [3] was 2.16 µM. It also gave a GI50 [4] of 0.425 µM, a TGI [4] of 3.61 µM and a GI50 [5] of 102 nM. For the same compound, the TGI [5] was 0.662 µM, the GI50 [6] was 0.471 µM and the TGI [6] was > 40.8 µM. For the same compound, the GI50 [7] was 0.628 µM, the TGI [7] was 6.24 µM and the GI50 [8] was 0.492 µM. The TGI [8] was 11.7 µM, the GI50 [9] was 0.413 µM and the TGI [9] was > 61.9 µM. It also gave a GI50 [10] of 0.59 µM, a TGI [10] of 19.7 µM and a GI50 [11] of 0.439 µM. For the same compound, the TGI [11] was 4.66 µM, the GI50 [12] was 0.579 µM and the TGI [12] was 11.4 µM. For the same compound, the GI50 [13] was 0.325 µM, the TGI [13] was 2060 nM and the GI50 [14] was 1.08 µM. The TGI [14] was 35 µM, the GI50 [15] was 0.167 µM and the TGI [15] was 0.643 µM. It also gave a GI50 [16] of 0.583 µM, a TGI [16] of 10.5 µM and a GI50 [17] of 1.08 µM. The TGI [17] was > 38.6 µM, the GI50 [18] was 0.445 µM and the TGI [18] was > 62.9 µM. The GI50 [19] was 0.221 µM, the TGI [19] was 1.4 µM and the GI50 [20] was 0.687 µM. It also gave a TGI [20] of 21.6 µM, a GI50 [21] of 0.284 µM and a TGI [21] of 11.3 µM. For the same compound, the GI50 [22] was 0.428 µM, the TGI [22] was 33.6 µM and the GI50 [23] was 0.333 µM. The TGI [23] was 6.15 µM, the GI50 [24] was 1.17 µM and the TGI [24] was > 100 µM. The GI50 [25] was 0.73 µM, the TGI [25] was > 100 µM and the GI50 [26] was 0.775 µM. For the same compound, the TGI [26] was 11.1 µM, the GI50 [27] was 0.302 µM and the TGI [27] was 5.33 µM. It also gave a GI50 [28] of 0.658 µM, a TGI [28] of 14.2 µM and a GI50 [29] of 0.298 µM. For the same compound, the TGI [29] was 2.89 µM, the GI50 [30] was 0.484 µM and the TGI [30] was > 100 µM. The GI50 [31] was 1.49 µM, the TGI [31] was > 61.9 µM and the GI50 [32] was 0.352 µM. For the same compound, the TGI [32] was 6.31 µM, the GI50 [57] was 798 nM and the TGI [57] was 5.03 µM. The GI50 [33] was 0.339 µM, the TGI [33] was 10.7 µM and the GI50 [34] was 0.978 µM. The TGI [34] was 16.3 µM, the GI50 [35] was 0.451 µM and the TGI [35] was 4.86 µM. For the same compound, the GI50 [36] was 1.18 µM, the TGI [36] was 42.8 µM and the GI50 [37] was 0.76 µM. For the same compound, the TGI [37] was 17.3 µM, the GI50 [38] was 0.257 µM and the TGI [38] was 1.29 µM. It also gave a GI50 [39] of 0.379 µM, a TGI [39] of 12.2 µM and a GI50 [40] of 0.519 µM. The TGI [40] was 8.57 µM, the GI50 [41] was 0.224 µM and the TGI [41] was 1.8 µM. It also gave a GI50 [43] of 0.272 µM, a TGI [43] of 1.2 µM and a GI50 [44] of 0.167 µM. The TGI [44] was 1.79 µM, the GI50 [45] was 0.382 µM and the TGI [45] was 14.5 µM. For the same compound, the GI50 [58] was 405 nM, the TGI [58] was 3.48 µM and the GI50 [46] was 0.214 µM. The TGI [46] was 2.56 µM, the GI50 [47] was 0.425 µM and the TGI [47] was 2.82 µM. The GI50 [48] was 0.526 µM, the TGI [48] was 11.3 µM and the GI50 [49] was 0.282 µM. For the same compound, the TGI [49] was 4.16 µM, the GI50 [50] was 0.262 µM and the TGI [50] was 1.47 µM. For the same compound, the GI50 [51] was 0.332 µM, the TGI [51] was 4.1 µM and the GI50 [52] was 0.307 µM. The TGI [52] was 3.67 µM, the GI50 [53] was 0.608 µM and the TGI [53] was 7.95 µM. It also gave a GI50 [54] of 0.746 µM, a TGI [54] of 8.79 µM and a GI50 [55] of 0.319 µM. The TGI [55] was > 80.2 µM, the GI50 [56] was 0.127 µM and the TGI [56] was 0.765 µM.

Reference: PubChem BioAssay (NCI)
